# Results from ChEMBL document CHEMBL1130765, “5-Aminomethylquinoxaline-2,3-diones, Part III: Arylamide derivatives as highly potent and selective glycine-site NMDA receptor antagonists” (Bioorg Med Chem Lett, 1998).
# Legend:
# [1] = biological target: Glutamate receptor ionotropic, AMPA (Rattus norvegicus, UniProt P19490+P19491+P19492+P19493); experiment: In vitro binding assay for the displacement of [3H]AMPA from AMPA receptor; assay type: protein-complex assay
# [2] = biological target: Glutamate receptor ionotropic, NMDA 1 (Rattus norvegicus, UniProt P35439); experiment: In vitro binding assay for the displacement of [3H]MDL-105519 from the glycine-site of NMDA receptors
Compound,IC50 [1] [nM],IC50 [2] [nM]
O=C(NCc1cc(Br)cc2[nH]c(=O)c(=O)[nH]c12)c1ccco1,6800,40
O=C(Cc1ccccc1)NCc1cc([N+](=O)[O-])cc2[nH]c(=O)c(=O)[nH]c12,28800,40
O=C(NCc1cc(Br)cc2nc(O)c(O)nc12)c1ccccc1,1700,60
COc1cc(C(=O)NCc2cc([N+](=O)[O-])cc3[nH]c(=O)c(=O)[nH]c23)cc(OC)c1OC,64,200
COc1cccc(CC(=O)NCc2cc(Br)cc3[nH]c(=O)c(=O)[nH]c23)c1,> 10000,30
COc1ccc(NC(=O)NCc2cc([N+](=O)[O-])cc3[nH]c(=O)c(=O)[nH]c23)cc1,300,30
O=C(Cc1cccc(Cl)c1)NCc1cc(Br)cc2nc(O)c(O)nc12,> 10000,40
O=C(NCc1cc([N+](=O)[O-])cc2nc(O)c(O)nc12)Nc1ccccc1,4340,900
O=C(NCc1cc([N+](=O)[O-])cc2[nH]c(=O)c(=O)[nH]c12)c1cc(O)c(O)c(O)c1,130,150
O=C(NCc1cc(Br)cc2nc(O)c(O)nc12)c1cc(C(F)(F)F)cc(C(F)(F)F)c1,> 10000,> 10000
O=C(NCc1cc(Br)cc2[nH]c(=O)c(=O)[nH]c12)C(O)c1ccccc1 (stereo unspecified),~10000,50
NS(=O)(=O)c1ccc(C(=O)NCc2cc([N+](=O)[O-])cc3[nH]c(=O)c(=O)[nH]c23)cc1,200,630
O=C(NCc1cc(Br)cc2[nH]c(=O)c(=O)[nH]c12)C(=O)c1ccccc1,> 10000,4000
O=C(Cc1cccc([N+](=O)[O-])c1)NCc1cc(Br)cc2[nH]c(=O)c(=O)[nH]c12,> 10000,40
O=C(Cc1ccccc1)NCc1cc(Cl)cc2nc(O)c(O)nc12,~10000,10
O=C(Cc1ccccc1)NCc1cc(Br)cc2[nH]c(=O)c(=O)[nH]c12,> 10000,10
CC(=O)OC(C(=O)NCc1cc(Br)cc2nc(O)c(O)nc12)c1ccccc1 (stereo unspecified),> 10000,40
O=C(NCc1cc([N+](=O)[O-])cc2[nH]c(=O)c(=O)[nH]c12)c1ccccc1O,150,40
O=C(NCc1cc(Br)cc2[nH]c(=O)c(=O)[nH]c12)Oc1ccccc1,> 10000,1500
O=C(Cc1ccc2c(c1)OCO2)NCc1cc(Br)cc2[nH]c(=O)c(=O)[nH]c12,> 10000,3900
COc1ccc(CC(=O)NCc2cc(Br)cc3[nH]c(=O)c(=O)[nH]c23)cc1OC,> 10000,50
O=C(CCc1ccccc1)NCc1cc(Br)cc2nc(O)c(O)nc12,> 10000,860

Compound,IC50 [1] [nM],IC50 [2] [nM]
COc1ccccc1NC(=O)NCc1cc([N+](=O)[O-])cc2nc(O)c(O)nc12,630,30
O=C(NCc1cc(Br)cc2nc(O)c(O)nc12)c1cccs1,1600,10
O=C(Cc1ccc(Cl)cc1)NCc1cc(Br)cc2nc(O)c(O)nc12,> 10000,20000
Nc1ccccc1C(=O)NCc1cc([N+](=O)[O-])cc2[nH]c(=O)c(=O)[nH]c12,300,170
O=C(Cc1ccsc1)NCc1cc(Br)cc2nc(O)c(O)nc12,11300,10
O=C(Cc1ccc([N+](=O)[O-])cc1)NCc1cc(Br)cc2nc(O)c(O)nc12,> 10000,1200
O=C(Cc1ccccc1Cl)NCc1cc(Br)cc2[nH]c(=O)c(=O)[nH]c12,> 10000,7
O=C(Cc1ccccc1[N+](=O)[O-])NCc1cc(Br)cc2nc(O)c(O)nc12,> 10000,20
O=C(NCc1cc(Br)cc2nc(O)c(O)nc12)OCc1ccccc1,~10000,110
CC(C(=O)NCc1cc(Br)cc2nc(O)c(O)nc12)c1ccccc1 (stereo unspecified),~10000,10
Cc1ccsc1C(=O)NCc1cc(Br)cc2nc(O)c(O)nc12,~10000,20
O=C(NCc1cc(Br)cc2[nH]c(=O)c(=O)[nH]c12)c1ccsc1,2000,10
O=C(Cc1ccccc1)NCc1cc(P(=O)(O)O)cc2[nH]c(=O)c(=O)[nH]c12,> 10000,> 10000
O=C(NCc1cc([N+](=O)[O-])cc2nc(O)c(O)nc12)Nc1ccc(OC(F)(F)F)cc1,1100,350
Cc1ccc(C(=O)NCc2cc(Br)cc3[nH]c(=O)c(=O)[nH]c23)s1,1700,30
O=C(Cc1ccccc1)NCc1cccc2[nH]c(=O)c(=O)[nH]c12,> 10000,90
Cn1cccc1C(=O)NCc1cc(Br)cc2[nH]c(=O)c(=O)[nH]c12,> 10000,20
O=C(NCc1cc(Br)cc2nc(O)c(O)nc12)c1cccnc1,4300,280
Cc1ccc(C(=O)NCc2cc(Br)cc3nc(O)c(O)nc23)cn1,~10000,110
Cc1ncccc1C(=O)NCc1cc(Br)cc2nc(O)c(O)nc12,~10000,1800
O=C(NCc1cc(Br)cc2nc(O)c(O)nc12)c1ccncc1,~10000,250
